Three compounds from US4511559A, “Biologically active polysaccharide concentrates and process for production of preparates containing such substances” (Kozponti Valto-es Hitelbank Rt. InnovacioAlap, priority 1982, dated 1985) can be followed below.

Structures are written as SMILES. Where two headings read alike, the source gives them in different places.

Series [1] has as its system rat paw carrageenan oedema. The experiment in a line: rat paw carrageenan oedema test (anti-inflammatory activity). The class given is in vivo. As to conditions: for Anti-inflammatory activity %: table 4; for ED50: Rattus norvegicus, po, reference standard. The source says: (§1) The anti-inflammatory activity of the polysaccharide concentrates produced according to the invention was investigated on the rat paw carrageenan oedema test according to Winter et al. [Proc. Soc. Exp. Biol. Med. 111. 544. (1962)]. The concentrate has a significant specific activity and in connection with its advantageous anti-inflammatory activity it posseses a remarkably low toxicity.
(In the carrageenan paw model, swelling and tenderness develop within hours.)

Series [2] deals with adjuvans arthritis in rat. The experiment in a line: adjuvans arthritis in rat (chronic inflammation model). The class given is in vivo. The settings on record: 50 mg/kg, intraperitoneal, 3 weeks. The source says: The polysaccharides produced according to the invention show significant effectivity on chronic inflammation models too, for example on adjuvans arthritis in rat, at intraperitoneal treatment for 3 weeks: […]

A short description of series [3]: rat paw carrageenan oedema test (anti-inflammatory activity). The class given is in vivo. The settings on record: rat, in vivo, po, read-out: Therapeutic index LD50/ED50.
Text: as §1

A further series is described as follows: in vivo. As to conditions: rat, in vivo, po, LD50, p.o. As for the experimental part:
(§2) The anti-inflammatory activity of the polysaccharide concentrate according to the invention was investigated intraperitoneally on rat according to the paw carrageenan oedema test. Simultaneously the LD50 values of the polysaccharide concentrates (i.p.) were determined.
(§3) The anti-inflammatory activity of the prepared polysaccharide concentrates was determined in comparison to the indomethancin as well using the rat paw carrageenan oedema test. The polysaccharide sample was intraperitoneally injected one hour before the inflammation inducing carrageenan. As reference standard per os applied indomethacin was used, which was suspended in 1% methylcellulose solution, and given through a gastric tube into the stomach one hour prior to the administration of Carrageenan to CFY rats and CFLP mice. The dosage was the same during the toxicity studies as well.
(§4) To develop the PG phase 5 hours are required from the injection of the inflammation inducing carrageenan.

The subject of another series is rat. The experiment in a line: in vivo. As to conditions: table 4. As to the method: as §2, §3, §4

By inhibition is commonly meant the change of the read-out against control, counted positive when it falls. The low end stands for a response near the control, the high end for a response far below the control. In general, ED50 refers to the dose that gives a 50% effect, or the effect in half of the subjects. For orientation: LD50 means the dose at which mortality reaches 50%. The low end stands for greater toxicity, the high end for lower toxicity.

In the case of `CCCCC1C(=O)N(c2ccccc2)N(c2ccccc2)C1=O` [Phenylbutazone, phenylbutazone], the Anti-inflammatory activity % in series [1] (90 mg/kg p.o.) was 40%; in series [2], 64%. This compound had an inhibition in series [1] (100 mg/kg, standard) of 45%. The same compound had an Inhibiton in series [1] (intraperitoneally, rat, 100 mg/kg) of 45.0%.

For `COc1ccc2c(c1)c(CC(=O)O)c(C)n2C(=O)c1ccc(Cl)cc1` [Indomethacin, indomethacin], the Anti-inflammatory activity % in series [1] (10 mg/kg p.o.) worked out at 51%. The ED50 turned out to be 3.14 mg/kg in series [1] (2 hours) and 2.2 mg/kg in series [1] (5 hours). The figures for the selectivity ratio in series [3] (2 hours) and in series [3] (5 hours) were 10.2 and 14.5, respectively. Further, the LD50 in the series “in vivo” (table 2) was 32 mg/kg; in “in vivo” (table 4), 17 mg/kg. For the same compound, the Dose/LD50 ratio with rat (dose 10 mg/kg p.o.) was found to be 0.580.

`CC(=O)Oc1ccccc1C(=O)O` [Aspyrine] had an Anti-inflammatory activity % in series [1] (400 mg/kg p.o.) of 36%. This compound also displayed an LD50 in the series “in vivo” (table 4) of 1200 mg/kg. Further, the Dose/LD50 ratio in the series on rat (dose 400 mg/kg p.o.) amounted to 0.330.
